Source: patent US20140221372A1, “METHOD OF ADMINISTRATION AND TREATMENT” (GlaxoSmithKline Intellectual Property (NO 2.) Limited, priority 2013, published 2014)
Where “and” joins values, the source holds several entries; their conditions need not be identical. Equal values may be shown once.

Tests used:
Assay type in all cases: in vivo, human
[1] = test system: hepatocellular cancer (HCC) subjects; assay: Pharmacogenetic analysis: association of genetic variants with TTP and OS in Asian HCC subjects receiving foretinib; details: foretinib 30 mg QD; for Median TTP: (95% CI)
Procedure: Asian HCC subjects treated with the maximum tolerated dose (MTD) of 30 mg QD and provided informed consent and blood sample for PGx research (n=31 of 39 subjects treated) were selected for PGx analysis. Of the 31 subjects who provided consent, 28 subjects were evaluable for objective response rate (ORR) and 30 for time to progression (TTP) and overall survival (OS).
Venous blood was collected from each PGx consented subject into an ethylenediaminetetraacetic acid (EDTA) vacutainer for PGx analysis. DNA was extracted using the Qiagen Autopure automated DNA extraction by Covance (Indianapolis, Ind., USA) and was genotyped for 20 single nucleotide polymorphisms (SNPs) with potential functional consequence from 13 candidate genes. The list of the genetic variants including their unique identifier (rs ID) and allele frequency in Asian population is included in Table 1. Genotyping of the SNPs was done via Sanger sequencing, or using custom TaqMan® SNP genotyping assays (Applied Biosystems, Foster City, Calif., USA) internally at GlaxoSmithKline or via TaqMan® custom or Assay on Demand genotyping assays (Applied Biosystems, Foster City, Calif., USA) by Gen-Probe (Wythenshawe, Manchester, UK).
Association with ORR was evaluated using Fisher's Exact Test (FET). Association with TTP and OS was tested using time-to-event (progression) models, using the Score (log rank) test. Since one of the haplotypes CAT (a unique combination of ‘C’, ‘A’, and ‘T’ alleles of SNPs—rs2307424, rs2307418, and rs4073054, respectively) in gene NR1I3/CAR (nuclear receptor subfamily 1, group I, member 3/constitutive androstane receptor) was previously reported to be associated with worse progression-free survival in sunitinib-treated renal cell carcinoma subjects (Van der Veldt 2011), the 3 SNPs in NR1I3 (were analyzed separately and together as a haplotype for association with clinical endpoints (see Tables 1 and 2). Similarly, the 3 SNPs in ABCB1 (ATP-binding cassette, subfamily B, member 1) were also analyzed separately and together as a haplotype.
Because of the limited sample size of the study, genetic analyses were performed without adjustment for baseline demographics or potential covariates, and p-values were not adjusted for multiple testing.

[2] = test system: hepatocellular carcinoma patients; assay: Association between baseline (Day 1) CAF levels and TTP / OS in patients on foretinib
Procedure: Blood was collected at baseline (Day 1) and post treatment with 30 mg/daily of foretinib on Days 8, 15, and 22. CAF (Cytokine and Angiogenic Factor) levels were determined. CAF levels were determined by using the Searchlight platform (Aushon Biosciences). Levels of circulating sMET and HGF were determined using Meso Scale Discovery Platform (Don Bottaro, National Cancer Institute [NCI]).
The biomarker analysis population was predefined to include patients who met the following criteria: • Patient is in a 30 mg cohort. • Pharmacodynamic (PD)-sample data available at baseline and for at least 1 post-baseline timepoint, and • Patient received at least 75% of planned doses up to time of last PD sample.
Association between day 1 CAF levels and TTP was assessed using univariate and multivariate (covariate adjusted) proportional hazards regression analysis. CAF data were transformed (log2) where appropriate.
Association between day 1 CAF levels and OS was assessed using univariate and multivariate (covariate adjusted) proportional hazards regression analysis. CAF data were transformed (log2) where appropriate. For statistically significant CAF's in the OS statistical models, a combined model of the significant CAF's will be explored, in which an optimal predictive combination of the CAF's (including optimal cutoffs) will be investigated. The method employed to explore the CAF's will depend upon the number of significant CAF's, and will be described in the results section.

sMET = assay: Circulating sMET level, percent change from baseline (Meso Scale Discovery Platform); details: Day 8, 30 mg/daily
Procedure: (§1) Blood was collected at baseline (Day 1) and post treatment with 30 mg/daily of foretinib on Days 8, 15, and 22. CAF (Cytokine and Angiogenic Factor) levels were determined. CAF levels were determined by using the Searchlight platform (Aushon Biosciences). Levels of circulating sMET and HGF were determined using Meso Scale Discovery Platform (Don Bottaro, National Cancer Institute [NCI]). The biomarker analysis population was predefined to include patients who met the following criteria: • Patient is in a 30 mg cohort. • Pharmacodynamic (PD)-sample data available at baseline and for at least 1 post-baseline timepoint, and • Patient received at least 75% of planned doses up to time of last PD sample. CAF percent changes from baseline were assessed for each CAF, at each time point, for available data in the biomarker population, using the Wilcoxon Signed Rank Test.

[3] = test system: CAF (Cytokine and Angiogenic Factor) levels; assay: Circulating pharmacodynamic markers: CAF time course, percent change from baseline (Searchlight platform)
Procedure: as §1

Compound: COc1cc2c(Oc3ccc(NC(=O)C4(C(=O)Nc5ccc(F)cc5)CC4)cc3F)ccnc2cc1OCCCN1CCOCC1 [foretinib]
- Median TTP ([1]; ABCB1 rs1045642 TC or TT genotype): 8 months and 8.21 (2.17-NE) months
- median OS ([1]; NR1I3 CAT/CAT): 5.9 months
- Median TTP ([1]; NR1I3 CAT/− or −/− (1 or no copy, other haplotypes)): 6.21 (2.96-NE) months
- Median TTP ([1]; NR1I3 haplotype CAT/CAT (2 copies)): 1.92 (1.51-NE*) months
- median OS ([1]; NR1I3 other haplotypes): 8.5 months
- longer TTP, lower vs higher levels of IL6 ([2]; median split of baseline IL6 levels, 30 mg cohort): ~6.7 month
- deaths ([2]; patients in the highest quartile of baseline IL6): 10/10
- deaths ([2]; patients in the highest quartile of baseline IL8): 9/10
- deaths ([2]; patients in the lowest quartiles of baseline IL6 and IL8 (all patients censored)): 0/9
- TTP ([2]; patients with higher baseline levels of IL6 (median split), 30 mg cohort): 2.9 months
- TTP ([2]; patients with lower baseline levels of IL6 (median split), 30 mg cohort): 9.6 months
- median survival ([2]; patients with unfavorable levels of IL6 and IL8 (group 1 in FIG. 6)): 6 months
- sMET Percent Change from baseline (sMET): 12%
- Clusterin Percent Change from baseline ([3]; Day 8, 30 mg/daily): 25%
- FASL Percent Change from baseline ([3]; Day 8, 30 mg/daily): 26%
- GCSF Percent Change from baseline ([3]; Day 8, 30 mg/daily): 46%
- IGFBP3 Percent Change from baseline ([3]; Day 8, 30 mg/daily): 19%
- IL6 Percent Change from baseline ([3]; Day 8, 30 mg/daily): 58%
- PLGF Percent Change from baseline ([3]; Day 8, 30 mg/daily): 105%
- TRAIL Percent Change from baseline ([3]; Day 8, 30 mg/daily): 25%
- TSP2 Percent Change from baseline ([3]; Day 8, 30 mg/daily): −14%
- VCAM1 Percent Change from baseline ([3]; Day 8, 30 mg/daily): 28%
- VEGF Percent Change from baseline ([3]; Day 8, 30 mg/daily): 61%
- ANG2 Percent Change from baseline ([3]; Day 15, 30 mg/daily): −24%
- FASL Percent Change from baseline ([3]; Day 15, 30 mg/daily): 20%
- IGFBP3 Percent Change from baseline ([3]; Day 15, 30 mg/daily): 13%
- IL6 Percent Change from baseline ([3]; Day 15, 30 mg/daily): 124%
- IL8 Percent Change from baseline ([3]; Day 15, 30 mg/daily): 20%
- PLGF Percent Change from baseline ([3]; Day 15, 30 mg/daily): 130%
- SCF Percent Change from baseline ([3]; Day 15, 30 mg/daily): −14%
- TRAIL Percent Change from baseline ([3]; Day 15, 30 mg/daily): 17%
- TSP2 Percent Change from baseline ([3]; Day 15, 30 mg/daily): −19%
- VCAM1 Percent Change from baseline ([3]; Day 15, 30 mg/daily): 43%
- VEGF Percent Change from baseline ([3]; Day 15, 30 mg/daily): 83%
- VEGFR2 Percent Change from baseline ([3]; Day 15, 30 mg/daily): −21%
- ANG2 Percent Change from baseline ([3]; Day 22, 30 mg/daily): −17%
- Clusterin Percent Change from baseline ([3]; Day 22, 30 mg/daily): 23%
- FASL Percent Change from baseline ([3]; Day 22, 30 mg/daily): 44%
- IGFBP3 Percent Change from baseline ([3]; Day 22, 30 mg/daily): 17%
- IL6 Percent Change from baseline ([3]; Day 22, 30 mg/daily): 111%
- PLGF Percent Change from baseline ([3]; Day 22, 30 mg/daily): 120%
- TRAIL Percent Change from baseline ([3]; Day 22, 30 mg/daily): 24%
- VCAM1 Percent Change from baseline ([3]; Day 22, 30 mg/daily): 64%
- VEGF Percent Change from baseline ([3]; Day 22, 30 mg/daily): 83%
- VEGFR2 Percent Change from baseline ([3]; Day 22, 30 mg/daily): −21%
